Reference: patent US8178506B2, “Oligomeric compounds and compositions for use in modulation of small non-coding RNAs” (Regulus Therapeutics Inc., priority 2003, dated 2012)
In the oligonucleotide strings, read from the 5' end, every base follows the letter of its sugar. An asterisk marks phosphorothioate; unmarked linkages are phosphodiester. Other units and linkages are bracketed, terminal groups are in braces. A string of capitals states the bases alone. e = 2'-O-(2-methoxyethyl) (MOE); [5mC] = 5-methylcytosine; d = 2'-deoxy (DNA)

Legend:
[1] = test system: IGFBP-1; assay: IGFBP-1 mRNA expression in HepG2 cells; format: cell-based, human; details: for IGFBP1 mRNA expression: Experiment 2, insulin treated: HepG2 cells transfected with oligomeric compound, 1 nM insulin for four hours, UTC + 1 nM insulin = 100
Method: (§1) Approximately 28 hours after transfection, the cells are subjected to serum starvation for a period of 12 to 16 hours, using serum-free growth medium. Following serum starvation, cells are treated with 1 nM insulin (insulin-treated) or are left untreated (basal conditions) for approximately four hours. At the same time, untreated control cells in both plates are treated with 100 nM insulin to determine the maximal insulin response. Following insulin treatment (forty-eight hours after transfection), total RNA is harvested from all samples, and the amount of total RNA from each sample is determined using a Ribogreen assay (Invitrogen Corporation, Carlsbad, Calif.). Real-time PCR is performed on the total RNA samples using primer/probe sets for three insulin responsive genes: insulin-like growth factor binding protein-1 (IGFBP-1), cytosolic PEPCK (PEPCK-C), and follistatin. Gene expression levels obtained by real-time PCR are normalized for total RNA content in the samples.
(§2) Oligomeric compounds of the present invention were tested for their effects on insulin signaling in HepG2 cells. HepG2 cells were plated at 7500 cells/well in collagen coated 96-well plates. The following day, cells were transfected with oligomeric compounds targeting miRNAs using 100 nM oligomeric compound in LIPOFECTIN™ (Invitrogen Corporation, Carlsbad, Calif.) in two 96-well plates. The oligomeric compounds were tested in triplicate on each 96-well plate, except for positive and negative controls, which were measured up to six times per plate. At the end of transfection, the transfection medium was replaced by regular growth medium. Twenty-eight hours post-transfection, the cells were subjected to overnight (sixteen to eighteen hours) serum starvation using serum free growth medium. Forty-four hours post-transfection, the cells in the transfected wells were treated with either no insulin (“basal” Experiment 1, for identification of insulin-mimetic compounds) or with 1 nM insulin (“insulin treated” Experiment 2, for identification of insulin sensitizers) for four hours. At the same time, in both plates, cells in some of the un-transfected control wells are treated with 100 nM insulin to determine maximal insulin response. At the end of the insulin or no-insulin treatment (forty-eight hours post-transfection), total RNA is isolated from both the basal and insulin treated (1 nM) 96-well plates, and the amount of total RNA from each sample is determined using a Ribogreen assay (Molecular Probes, Eugene, Oreg.). Real-time PCR is performed on all the total RNA samples using primer/probe sets for three insulin responsive genes: PEPCK-c, IGFBP-1 and follistatin. Expression levels for each gene are normalized to total RNA, and values+standard deviation are expressed relative to the transfectant only untreated control (UTC) and negative control compounds.
(§3) Protocols for treatment of HepG2 cells and transfection of oligomeric compounds are as described in Example 18. Also as described in Example 18, forty-four hours post-transfection, the cells in the transfected wells were treated with either no insulin (“basal” Experiment 3 (below), for identification of insulin-mimetic compounds) or with 1 nM insulin (“insulin treated” Experiment 4 (below), for identification of insulin sensitizers) for four hours. At the same time, in both plates, cells in some of the un-transfected control wells are treated with 100 nM insulin to determine maximal insulin response. At the end of the insulin or no-insulin treatment (forty-eight hours post-transfection), total RNA is isolated from both the basal and insulin treated (1 nM) 96-well plates, and the amount of total RNA from each sample is determined using a Ribogreen assay (Molecular Probes, Eugene, Oreg.).

[2] = test system: PEPCK-c; assay: PEPCK-c mRNA expression in HepG2 cells; format: cell-based, human; details: for PEPCKc mRNA expression: Experiment 2, insulin treated: HepG2 cells transfected with oligomeric compound, 1 nM insulin for four hours, UTC + 1 nM insulin = 100
Method: as §1, §2, §3

[3] = test system: follistatin; assay: Follistatin mRNA expression in HepG2 cells; format: cell-based, human; details: for Follistatin mRNA expression: Experiment 2, insulin treated: HepG2 cells transfected with oligomeric compound, 1 nM insulin for four hours, UTC + 1 nM insulin = 100
Method: as §1, §2, §3

[4] = test system: T47D cells; assay: Caspase-3 activity assay (apoptosis) in T47D cells; details: T47D cells, 48 hours; for Fold Increase over UTC (caspase-3 activity, apoptosis): 200 nM oligomeric compound
[5] = test system: HeLa cells; assay: Cell cycle assay in HeLa cells; format: cell-based, human; details: HeLa cells, 150 nM oligomeric compound; for % cells aneuploid / % cells in cell cycle phase G1 / % cells in cell cycle phase G2/M / % cells in cell cycle phase S / % cells in cell cycle phase subG1: 24 hours, relative to untreated control (UTC = 100); for % cells in cell cycle phase: G1 / % cells in cell cycle phase: G2/M / % cells in cell cycle phase: S / % cells in cell cycle phase: aneuploid / % cells in cell cycle phase: subG1: 48 hours after treatment, relative to untreated control (UTC=100)
[6] = test system: BJ, B16-F10, T47D, T47Dp53 and HeLa cells; assay: Cell cycle assay (propidium iodide flow cytometry), cell line panel; format: cell-based; details: 150 nM oligomeric compound, 4.5 μg/ml LIPOFECTIN, after 72 hours, propidium iodide flow cytometry
[7] = test system: HSL; assay: HSL mRNA expression in adipocytes (real-time PCR); format: cell-based, human; details: differentiating adipocytes transfected with oligomeric compound; Table 75
[8] = test system: PPARγ; assay: PPARγ mRNA expression in adipocytes (real-time PCR); format: cell-based, human; details: differentiating adipocytes transfected with oligomeric compound; Table 75
[9] = test system: adipocytes; assay: Triglyceride accumulation assay in adipocytes; format: cell-based, human; details: differentiating adipocytes transfected with oligomeric compound; Table 75
[10] = test system: Glut4; assay: Glut4 mRNA expression in adipocytes (real-time PCR); format: cell-based, human; details: differentiating adipocytes transfected with oligomeric compound; Table 75
[11] = test system: aP2; assay: aP2 mRNA expression in adipocytes (real-time PCR); format: cell-based, human; details: differentiating adipocytes transfected with oligomeric compound; Table 75
[12] = Experiment 3, basal (no insulin), HepG2 cells, 48 hours post-transfection
[13] = Experiment 4, insulin-sensitization: HepG2 cells treated with 1 nM insulin for four hours, 48 h post-transfection, mRNA by real-time PCR
[14] = HepG2 cells, Experiment 1, basal (no insulin), four hours, UTC = 100

## 328384 (eT*e[5mC]*eA*e[5mC]*eG*dT*dG*dG*dA*dG*dA*dG*dG*dA*dG*eT*eT*eA*eA*eA; antisense) [compound 328384]
[1]; [12]
  IGFBP-1 (% UTC): 139 % UTC
[1]; [13]
  IGFBP-1 (% UTC): 102 % UTC
[2]; [12]
  PEPCK-c (% UTC): 142 % UTC
[2]; [13]
  PEPCK-c (% UTC): 114 % UTC
[3]; [12]
  Follistatin (% UTC): 110 % UTC
[3]; [13]
  Follistatin (% UTC): 121 % UTC
[4]; experiment of Table 11
  Fold Increase over UTC (caspase-3 activity, apoptosis): 1.0 fold

## 328396 (antisense e[5mC]*eT*eG*eG*eT*dT*dG*dG*dG*dT*dA*dT*dG*dA*dG*eA*e[5mC]*eA*eG*eA) [compound 328396]
[1]
  IGFBP1 mRNA expression: 128
[2]
  PEPCKc mRNA expression: 65
[5]
  % cells aneuploid: 88%
  % cells in cell cycle phase G1: 94%
  % cells in cell cycle phase G2/M: 139%
  % cells in cell cycle phase S: 87%
  % cells in cell cycle phase subG1: 97%
  % cells in cell cycle phase: G1: 89%
  % cells in cell cycle phase: G2/M: 119%
  % cells in cell cycle phase: S: 114%
  % cells in cell cycle phase: aneuploid: 129%
  % cells in cell cycle phase: subG1: 88%
[3]
  Follistatin mRNA expression: 135
[4]; experiment of Table 12
  Fold Increase over UTC (caspase-3 activity, apoptosis): 0.8 fold
[6]
  G1 (percentage of cells in phase of the cell cycle): 56.8%
  G2/M (percentage of cells in phase of the cell cycle): 15%
  S (percentage of cells in phase of the cell cycle): 28.2%
  SubG1 (percentage of cells in phase of the cell cycle): 4.6%
  aneuploid (percentage of cells): 19.8%

## 328397 (antisense eT*eT*eG*eA*eT*d[5mC]*d[5mC]*dA*dT*dA*dT*dG*d[5mC]*dA*dA*e[5mC]*eA*eA*eG*eG) [compound 328397]
[1]
  IGFBP1 mRNA expression: 57
[2]
  PEPCKc mRNA expression: 76
[5]
  % cells aneuploid: 91%
  % cells in cell cycle phase G1: 93%
  % cells in cell cycle phase G2/M: 142%
  % cells in cell cycle phase S: 86%
  % cells in cell cycle phase subG1: 134%
  % cells in cell cycle phase: G1: 97%
  % cells in cell cycle phase: G2/M: 109%
  % cells in cell cycle phase: S: 101%
  % cells in cell cycle phase: aneuploid: 96%
  % cells in cell cycle phase: subG1: 74%
[3]
  Follistatin mRNA expression: 75
[4]; 200 nM, relative to untreated control
  Fold Increase over UTC (caspase activity): 1.2

## 328423 (antisense e[5mC]*e[5mC]*eA*e[5mC]*eA*dT*dA*dT*dA*d[5mC]*dA*dT*dA*dT*dA*eT*eA*e[5mC]*eG*e[5mC]) [compound 328423]
[1]
  IGFBP1 mRNA expression: 69
[2]
  PEPCKc mRNA expression: 77
[3]
  Follistatin mRNA expression: 114
[4]; experiment of Table 10
  Fold Increase over UTC (caspase-3 activity, apoptosis): 0.6 fold
[6]
  G1 (percentage of cells in phase of the cell cycle): 52.9%
  G2/M (percentage of cells in phase of the cell cycle): 14.8%
  S (percentage of cells in phase of the cell cycle): 32.4%
  SubG1 (percentage of cells in phase of the cell cycle): 4.9%
  aneuploid (percentage of cells): 15.3%

## 328649 (eG*eT*eA*eG*eA*dT*dA*dA*d[5mC]*dT*dA*dA*dA*d[5mC]*dA*e[5mC]*eT*eA*e[5mC]*e[5mC]; antisense) [compound 328649]
[1]
  IGFBP1 mRNA expression: 115
[2]
  PEPCKc mRNA expression: 86
[3]
  Follistatin mRNA expression: 69
[4]; experiment of Table 10
  Fold Increase over UTC (caspase-3 activity, apoptosis): 1.0 fold

## 328773 (antisense eT*eA*e[5mC]*eT*eT*dT*dA*d[5mC]*dT*d[5mC]*d[5mC]*dA*dA*dG*dG*eT*eT*eT*eT*eA) [compound 328773]
[1]; [12]
  IGFBP-1 (% UTC): 148 % UTC
[1]; [13]
  IGFBP-1 (% UTC): 136 % UTC
[2]; [12]
  PEPCK-c (% UTC): 138 % UTC
[2]; [13]
  PEPCK-c (% UTC): 93 % UTC
[3]; [12]
  Follistatin (% UTC): 131 % UTC
[3]; [13]
  Follistatin (% UTC): 148 % UTC
[6]
  G1 (percentage of cells in phase of the cell cycle): 56.4%
  G2/M (percentage of cells in phase of the cell cycle): 16.7%
  S (percentage of cells in phase of the cell cycle): 26.9%
  SubG1 (percentage of cells in phase of the cell cycle): 2.7%
  aneuploid (percentage of cells): 11.7%

## 341802 (antisense AGCUGCUUUUGGGAUUCCGUUG; all 2'-MOE, all phosphorothioate, methylation of C and T or U not given here) [compound 341802]
[7]
  HSL mRNA: 121 percentage of untreated control (UTC)
[1]; [14]
  IGFBP1 mRNA: 186
[2]; [14]
  PEPCKc mRNA: 98
[8]
  PPAR gamma mRNA: 127 percentage of untreated control (UTC)
[3]; [14]
  Follistatin mRNA: 136
[9]
  TG (triglyceride accumulation): 155 percentage of untreated control (UTC)
[10]
  GLUT4 mRNA: 85 percentage of untreated control (UTC)
[11]
  aP2 mRNA: 98 percentage of untreated control (UTC)
